Data as given in ChEMBL document CHEMBL1144403, “Novel immunomodulator FTY720 is phosphorylated in rats and humans to form a single stereoisomer. Identification, chemical proof, and biological characterization of the biologically active species and its enantiomer” (J Med Chem, 2005).

Legend:
Assay type in all cases: functional, cell-based
[1] = molecular target: T1, Sphingosine 1-phosphate receptor 4 (Homo sapiens, UniProt O95977); assay: Agonism of human S1P-4 receptor expressed in CHO cells, 90-120 min in pH 7.4 using [35S]GTP-gamma-S as radioligand
T1 sequence (O95977 whole entry): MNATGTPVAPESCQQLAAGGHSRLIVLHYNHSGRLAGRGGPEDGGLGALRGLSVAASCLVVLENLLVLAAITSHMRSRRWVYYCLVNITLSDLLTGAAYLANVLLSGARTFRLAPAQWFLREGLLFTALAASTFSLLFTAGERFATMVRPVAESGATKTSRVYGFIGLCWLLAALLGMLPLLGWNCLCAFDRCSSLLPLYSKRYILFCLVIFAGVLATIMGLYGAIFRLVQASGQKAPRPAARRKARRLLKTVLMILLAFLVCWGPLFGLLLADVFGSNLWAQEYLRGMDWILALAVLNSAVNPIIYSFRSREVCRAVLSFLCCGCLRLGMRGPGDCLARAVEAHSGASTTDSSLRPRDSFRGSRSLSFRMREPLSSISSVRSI

[2] = molecular target: Sphingosine 1-phosphate receptor 5 (Homo sapiens, UniProt Q9H228); assay: Agonism of human S1P-5 receptor expressed in CHO cells, 90-120 min in pH 7.4 using [35S]GTP-gamma-S as radioligand
[3] = molecular target: Sphingosine 1-phosphate receptor 3 (Homo sapiens, UniProt Q99500); assay: Agonism of human S1P-3 receptor expressed in CHO cells, 90-120 min in pH 7.4 using [35S]GTP-gamma-S as radioligand
[4] = molecular target: Sphingosine 1-phosphate receptor 2 (Homo sapiens, UniProt O95136); assay: Agonism of human S1P-2 receptor expressed in CHO cells, 90-120 min in pH 7.4 using [35S]GTP-gamma-S as radioligand
Chain of Sphingosine 1-phosphate receptor 2 (O95136 whole entry): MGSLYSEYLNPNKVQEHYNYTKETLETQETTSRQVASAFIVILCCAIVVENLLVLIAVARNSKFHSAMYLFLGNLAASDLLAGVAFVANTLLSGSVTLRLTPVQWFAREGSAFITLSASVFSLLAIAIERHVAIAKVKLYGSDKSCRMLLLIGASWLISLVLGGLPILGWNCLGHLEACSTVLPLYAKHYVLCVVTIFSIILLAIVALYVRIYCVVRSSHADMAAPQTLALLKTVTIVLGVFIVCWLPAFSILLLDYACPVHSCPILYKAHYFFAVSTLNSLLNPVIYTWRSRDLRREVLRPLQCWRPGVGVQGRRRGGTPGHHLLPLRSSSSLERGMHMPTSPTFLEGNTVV

Chain of Sphingosine 1-phosphate receptor 5 (Q9H228 whole entry): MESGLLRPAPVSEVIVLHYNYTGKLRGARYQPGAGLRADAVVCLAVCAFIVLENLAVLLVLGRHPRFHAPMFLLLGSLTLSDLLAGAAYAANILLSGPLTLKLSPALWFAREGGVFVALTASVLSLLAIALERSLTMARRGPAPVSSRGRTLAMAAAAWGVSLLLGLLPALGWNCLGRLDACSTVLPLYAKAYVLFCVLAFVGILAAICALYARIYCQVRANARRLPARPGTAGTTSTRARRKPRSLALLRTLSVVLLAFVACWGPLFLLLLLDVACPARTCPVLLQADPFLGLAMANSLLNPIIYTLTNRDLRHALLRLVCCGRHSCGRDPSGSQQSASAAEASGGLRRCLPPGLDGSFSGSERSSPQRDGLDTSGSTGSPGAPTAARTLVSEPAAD
Chain of Sphingosine 1-phosphate receptor 3 (Q99500 whole entry): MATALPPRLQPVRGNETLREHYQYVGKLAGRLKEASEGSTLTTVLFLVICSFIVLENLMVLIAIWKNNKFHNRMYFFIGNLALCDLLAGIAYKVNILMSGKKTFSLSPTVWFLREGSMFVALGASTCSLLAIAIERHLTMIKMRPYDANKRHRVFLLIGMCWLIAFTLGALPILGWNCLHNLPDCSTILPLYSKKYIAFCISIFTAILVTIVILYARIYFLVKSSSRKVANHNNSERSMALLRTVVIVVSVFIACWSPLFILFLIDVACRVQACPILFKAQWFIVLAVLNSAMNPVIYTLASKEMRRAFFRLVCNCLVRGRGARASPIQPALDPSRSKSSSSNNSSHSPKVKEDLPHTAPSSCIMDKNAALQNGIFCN

Row | EC50 [1] | EC50 [2] | EC50 [3] | EC50 [4] | SMILES
1 | 80.1 nM |  |  |  | CCCCCCCCc1ccc(CC[C@@](N)(CO)COP(=O)(O)O)cc1
2 | 2.4 nM |  |  |  | CCCCCCCCc1ccc(CCC(N)(CO)COP(=O)(O)O)cc1 (racemic)
3 | > 10000 nM | > 10000 nM | > 10000 nM | > 10000 nM | CCCCCCCCc1ccc(CCC(N)(CO)CO)cc1 [FINGOLIMOD]
4 | 0.6 nM |  |  |  | CCCCCCCCc1ccc(CC[C@](N)(CO)COP(=O)(O)O)cc1 [FTY720-P]
